One compound from patent US20240325330A1, “NEW METHOD TO TREAT ACIDOSIS RELATED DISEASES WITH ACETOACETATE” (INSTITUT NATIONAL DE LA SANTÉ ET DE LA RECHERCHE MÉDICALE, priority 2021, published 2024) can be followed below.

For this assay, the system named is human monocytes exposed to lactic acid. The assay is described as follows: Intracellular pH (SNARF probe, flow cytometry). The format is cell-based. The settings on record: 10 mM lactic acid with 5 mM AcAc; FIG. 2E. How it is done: Peripheral blood mononuclear cells (PBMC) were obtained from healthy human volunteers (Blood collection center, Angers, France; agreement ANG-2017-01) by standard density-gradient centrifugation on lymphocyte separation medium (Eurobio, Courtaboeuf, France). CD14+ monocytes were then isolated by positive magnetic cell-sorting (Miltenyi Biotec, Bergisch Gladbach, Germany). […]
Intracellular pH (pHi) was measured by incubating 3×10^5 Mφ with 500 nM pH-sensitive dye carboxy-SNARF-AM (Life Technologies, Carlsbad, CA) in PBS/BSA at 37° C. for 20 min and then performing flow cytometry analysis. We determined pHi as the ratio of fluorescence intensities at two emission wavelengths (585/42 nm and 700/60 nm PMTs). SNARF fluorescence in macrophages was calibrated with a high-potassium buffer (39.6 mM NaCl, 120 mM KCl, 2.3 mM CaCl2), 1 mM MgCl2, 5 mM HEPES, 10 mM glucose) at pH values of 6.5 to 8, in the presence of 10 μM nigericin (Sigma-Aldrich); nigericin exchanges external potassium with internal protons to equilibrate extracellular and intracellular pH.

Regarding `CC(=O)CC(=O)[O-].[Li+]` [AcAc, lithium acetoacetate], the “immediate short-term decrease in pHi induced by extracellular acidosis” value is “remained detectable”.
